By IC50 is commonly meant the concentration that inhibits the measured activity by half.

Changes are numbered by the printed parent chain. Where only a bound is given, the exact number is not on record here.

Assay [1] concerns the target T1, AR (Homo sapiens, UniProt P10275).
T1 construct: expressed in transfected cells; host or cells: CV1 cells
T1 sequence (P10275 1-920): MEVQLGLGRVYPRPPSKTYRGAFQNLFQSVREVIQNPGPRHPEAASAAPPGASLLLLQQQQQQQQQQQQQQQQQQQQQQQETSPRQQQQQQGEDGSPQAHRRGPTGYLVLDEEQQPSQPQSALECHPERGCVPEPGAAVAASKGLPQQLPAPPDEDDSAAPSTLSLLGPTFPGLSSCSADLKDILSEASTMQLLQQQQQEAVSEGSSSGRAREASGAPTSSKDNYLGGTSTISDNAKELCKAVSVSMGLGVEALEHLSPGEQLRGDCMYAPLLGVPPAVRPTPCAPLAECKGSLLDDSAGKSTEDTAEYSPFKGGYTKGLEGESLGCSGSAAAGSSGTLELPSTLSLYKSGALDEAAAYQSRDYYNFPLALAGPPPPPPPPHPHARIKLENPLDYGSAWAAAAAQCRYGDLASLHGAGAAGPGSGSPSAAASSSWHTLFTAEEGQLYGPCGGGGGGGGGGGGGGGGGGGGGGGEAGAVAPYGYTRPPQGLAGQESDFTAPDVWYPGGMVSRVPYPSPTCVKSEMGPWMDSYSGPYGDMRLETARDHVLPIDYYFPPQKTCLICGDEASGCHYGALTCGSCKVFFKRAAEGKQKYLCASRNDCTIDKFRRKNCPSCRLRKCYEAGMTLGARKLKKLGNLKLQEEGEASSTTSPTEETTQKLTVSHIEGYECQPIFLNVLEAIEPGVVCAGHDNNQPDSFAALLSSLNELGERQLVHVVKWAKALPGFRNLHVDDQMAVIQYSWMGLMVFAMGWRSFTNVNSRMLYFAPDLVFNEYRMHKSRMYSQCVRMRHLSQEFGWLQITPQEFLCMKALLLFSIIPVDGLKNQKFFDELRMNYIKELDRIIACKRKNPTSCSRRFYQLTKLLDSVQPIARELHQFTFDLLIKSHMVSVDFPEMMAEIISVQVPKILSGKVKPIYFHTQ
The assay is described as follows: Reporter gene assay, AR transcriptional (MMTV-Luc) in CV1 cells. Type of assay: cell-based. The conditions noted are these: pcDNA-AR + MMTV-Luc, 0.1 nM R1881 plus test compound, 24 hrs, read-out: B1 = AR transcriptional IC50 (μM) in CV1 cells. A digest of the protocol: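 CV1 cells transiently co-transfected with human AR, MMTV-Luc reporter and Renilla-Luc (transfection efficiency and toxicity read-out), then stimulated 24 h with 0.1 nM R1881 plus increasing test compound concentrations. Firefly and Renilla luciferase quantified by dual-luciferase assay; IC50 derived from concentration-response.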

Assay [2] has as its target T2, AR (Homo sapiens, UniProt P10275, T878A).
T2 construct: endogenous in cells; host or cells: LNCaP cells
T2 sequence (P10275 1-920 T878A): T1 sequence (P10275 1-920) with T878A
The assay is described as follows: In Cell Western AR degradation assay in LNCaP cells. Type of assay: cell-based. The note with it: 18 hrs, greater than 50% degradation at 10 μM (method says 20 μM). As for the experimental part:
In Cell Western (AR degradation Assay, Table 2, B10). LNCaP cells were plated in 96-well clear bottom black plates (20K cells/well) in RPMI supplemented with 8% CFS. Following 48 hr incubation, cells were treated with hormone (20 μM test compound) for 18 hrs. Cells were fixed with formaldehyde (3.7%) and permeabilized using PBS (0.1% TRITON X-100). Cells were incubated with anti-AR antibody (N20, 1:2000), washed with PBS (0.1% Tween), and stained with 2nd antibody (Biotium CF770 goat anti-rabbit, 1:2000). AR protein expression was assessed using the LI-COR Odyssey imaging system. DRAQ5 (DNA stain, 1:10,000, Thermo Scientific) was used to normalize AR protein expression.
For B4-B7, scoring system is based on the relative AR target gene agonist/antagonist activity of test compounds when compared to benchmark compounds enzalutamide or bicalutamide. […] The lack of agonist activity is desirable for therapies intended to treat CRPC. For B4 and B6, a score of 1 indicates less agonism (highly desired activity) than benchmark compound enzalutamide, a score of 2 indicates equal agonism to enzalutamide (desirable), a score of 3 indicates agonism between enzalutamide and bicalutamide (less desirable activity), a score of 4 indicates equal agonism to bicalutamide (liability), and a score of 5 indicates higher agonism than bicalutamide (liability). For B5 and B7 a score of 1 indicates higher antagonist efficacy (highly desired activity) than benchmark compound enzalutamide, a score of 2 indicates equal antagonist efficacy to enzalutamide (desirable), a score of 3 indicates antagonist efficacy between enzalutamide and bicalutamide (less desirable activity), a score of 4 indicates antagonist efficacy equal to bicalutamide (liability), and a score of 5 indicates antagonist efficacy worse than bicalutamide (liability) For B9, Compounds that degrade AR (greater than 50% degradation at 10 μM) are indicated.

For the compound `O=C1C2=C(C(=O)c3ccccc31)C(c1ccc(F)c(F)c1)c1c(ccc3ncccc13)N2` (racemic) [Compound A85, (±)-14-(3,4-difluorophenyl)naphtho[2,3-b][4,7]phenanthroline-8,13(7H,14H)-dione], the IC50 at AR [1] was > 10 µM. In addition, the “B9 = AR degradation in LNCaP cells (In-Cell Western)” value (“B9 = AR degradation in LNCaP cells” for short) on AR [2] is given as “Degrader (Compounds that degrade AR (greater than 50% degradation at 10 μM) are indicated)”.

With `CC1(C)CC(=O)C2=C(C1)Nc1ccc3ncccc3c1C2c1ccc(F)c(Br)c1` (stereo not drawn) [Compound A74], the IC50 on AR [1] stood at 8.6 µM. Further, the “B9 = AR degradation in LNCaP cells” value on AR [2] was “Degrader (Compounds that degrade AR (greater than 50% degradation at 10 μM) are indicated)”.

For `CC1(C)CC(=O)C2=C(C1)Nc1ccc3cccnc3c1C2c1ccc(F)c(F)c1` (racemic) [Compound A96, (±)-12-(3,4-difluorophenyl)-9,9-dimethyl-8,9,10,12-tetrahydrobenzo[j][1,7]phenanthrolin-11(7H)-one], the IC50 at AR [1] was 0.8 µM. Besides, the “B9 = AR degradation in LNCaP cells” value at AR [2] is recorded as “Degrader (Compounds that degrade AR (greater than 50% degradation at 10 μM) are indicated)”.

Take `CC1(C)CC(=O)C2=C(C1)Nc1ccc3cn[nH]c3c1C2c1ccc(Br)s1` (stereo not drawn) [Compound A110]: the IC50 on AR [1] was > 10 µM. The “B9 = AR degradation in LNCaP cells” value at AR [2] is “Degrader (Compounds that degrade AR (greater than 50% degradation at 10 μM) are indicated)”.

Turning to `CC1(C)CC(=O)C2=C(C1)Nc1ccc3ncccc3c1C2c1ccc(Cl)c([N+](=O)[O-])c1` (stereo not drawn) [Compound A75], the IC50 on AR [1] was > 10 µM. For the same compound, the “B9 = AR degradation in LNCaP cells” value at AR [2] is recorded as “Degrader (Compounds that degrade AR (greater than 50% degradation at 10 μM) are indicated)”.

As for `CC1(C)CC(=O)C2=C(C1)Nc1ccc3ncccc3c1C2c1ccc(Cl)s1` (stereo not drawn) [Compound A64], the IC50 at AR [1] is 1.9 µM. Moreover, the “B9 = AR degradation in LNCaP cells” value at AR [2] is “Degrader (Compounds that degrade AR (greater than 50% degradation at 10 μM) are indicated)”.

Regarding `CC1(C)CC(=O)C2=C(C1)Nc1ccc3nccnc3c1C2c1ccc(F)c(F)c1` (racemic) [Compound A83, (±)-12-(3,4-difluorophenyl)-9,9-dimethyl-8,9,10,12-tetrahydropyrazino[2,3-a]acridin-11(7H)-one], the IC50 at AR [1] was 7.4 µM. The “B9 = AR degradation in LNCaP cells” value on AR [2] is listed as “Degrader (Compounds that degrade AR (greater than 50% degradation at 10 μM) are indicated)”.

Turning to `Cn1ncc2ccc3c(c21)C(c1ccc(Cl)s1)C1=C(CC(C)(C)CC1=O)N3` (stereo not drawn) [Compound A109], the IC50 at AR [1] amounted to 4.7 µM. Also, on AR [2], the “B9 = AR degradation in LNCaP cells” value is given as “Degrader (Compounds that degrade AR (greater than 50% degradation at 10 μM) are indicated)”.

Consider `Cn1ncc2ccc3c(c21)C(c1ccc(F)c(F)c1)C1=C(CC(C)(C)CC1=O)N3` (stereo not drawn) [Compound A78], for which the IC50 at AR [1] was > 10 µM. On AR [2], the “B9 = AR degradation in LNCaP cells” value was “Degrader (Compounds that degrade AR (greater than 50% degradation at 10 μM) are indicated)”.

As to `CC1(C)CC(=O)C2=C(C1)Nc1ccc3ncccc3c1C2c1ccsc1` (stereo not drawn) [Compound A69], at AR [1], the IC50 worked out at 6.1 µM. Besides, on AR [2], the “B9 = AR degradation in LNCaP cells” value is recorded as “Degrader (Compounds that degrade AR (greater than 50% degradation at 10 μM) are indicated)”.

`Cc1ccsc1C1C2=C(CC(C)(C)CC2=O)Nc2ccc3ccccc3c21` (stereo not drawn) [Compound A117]: the 50% inhibitory concentration (IC50) at AR [1] was found to be 2.3 µM. The “B9 = AR degradation in LNCaP cells” value on AR [2] is listed as “Degrader (Compounds that degrade AR (greater than 50% degradation at 10 μM) are indicated)”.

As to `CC1(C)CC(=O)C2=C(C1)Nc1ccc3ncccc3c1C2c1cc2ccccc2s1` (racemic) [Compound A92, (±)-12-(benzo[b]thiophen-2-yl)-9,9-dimethyl-8,9,10,12-tetrahydrobenzo[b][4,7]phenanthrolin-11(7H)-one], the IC50 at AR [1] stood at 0.9 µM. Besides, the “B9 = AR degradation in LNCaP cells” value on AR [2] is reported as “Degrader (Compounds that degrade AR (greater than 50% degradation at 10 μM) are indicated)”.

As for `CC1(C)CC(=O)C2=C(C1)Nc1ccc3c(c1C2c1ccc(Cl)s1)OCO3` (stereo not drawn) [Compound A107], the IC50 at AR [1] stood at 0.9 µM. Besides, on AR [2], the “B9 = AR degradation in LNCaP cells” value is listed as “Degrader (Compounds that degrade AR (greater than 50% degradation at 10 μM) are indicated)”.

`CC1(C)CC(=O)C2=C(C1)Nc1ccc3nccnc3c1C2c1cc2ccccc2s1` (racemic) [Compound A93, (±)-12-(benzo[b]thiophen-2-yl)-9,9-dimethyl-8,9,10,12-tetrahydropyrazino[2,3-a]acridin-11(7H)-one]: the IC50 at AR [1] worked out at 1.2 µM. The “B9 = AR degradation in LNCaP cells” value at AR [2] is recorded as “Degrader (Compounds that degrade AR (greater than 50% degradation at 10 μM) are indicated)”.

On to `CC1(C)CC(=O)C2=C(C1)Nc1ccc3ncccc3c1C2c1cc(Br)c(Br)s1` (stereo not drawn) [Compound A76], for which the 50% inhibitory concentration (IC50) at AR [1] amounted to 2.2 µM. At AR [2], the “B9 = AR degradation in LNCaP cells” value is recorded as “Degrader (Compounds that degrade AR (greater than 50% degradation at 10 μM) are indicated)”.

As to `CC1(C)CC(=O)C2=C(C1)Nc1ccc3ncccc3c1C2c1ccc(Cl)nc1` (stereo not drawn) [Compound A71], on AR [1], the IC50 was 6.9 µM. Moreover, the “B9 = AR degradation in LNCaP cells” value at AR [2] is recorded as “Degrader (Compounds that degrade AR (greater than 50% degradation at 10 μM) are indicated)”.

Consider `CC1(C)CC(=O)C2=C(C1)Nc1ccc3ncccc3c1C2c1c[nH]c2ccc(F)cc12` (stereo not drawn) [Compound A68], for which the IC50 at AR [1] was > 10 µM. Also, the “B9 = AR degradation in LNCaP cells” value on AR [2] is “Degrader (Compounds that degrade AR (greater than 50% degradation at 10 μM) are indicated)”.

Take `CC1(C)CC(=O)C2=C(C1)Nc1ccc3ncccc3c1C2c1cc(Br)cs1` (stereo not drawn) [Compound A61]: the IC50 at AR [1] is 1.8 µM. The “B9 = AR degradation in LNCaP cells” value on AR [2] is listed as “Degrader (Compounds that degrade AR (greater than 50% degradation at 10 μM) are indicated)”.

Values taken from patent US20180303807A1, “ANDROGEN RECEPTOR LIGANDS” (DUKE UNIVERSITY, priority 2015, published 2018).
